From PubChem BioAssay AID2060508 (Molecular Pharmacology Branch, DTP, NCI, 2025)

System: 454973-116-R2-J3-PDC spheroids, viability, % test/control
Assay: Anticancer human tumor 454973-116-R2-J3-PDC patient-derived pancreatic carcinoma cell line growth inhibition [GQUAD]
Details: spheroids with HUVEC and MSC; for IC50: curve of first compound; for viability, T/C: stronger effect = lower value; active = viability on the fitted dose curve at most 10% of control; inactive = the rest
Outline: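 Tumor cells were grown as complex spheroids with HUVEC endothelial cells and mesenchymal stem cells as stroma. G-quadruplex stabilizers were combined with targeted agents over half-log dilutions from near the clinical Cmax, or from 10 microM.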

[1] = second compound 0.0316 µM, first compound 0.000999 µM
[2] = second compound 0.0316 µM, first compound 0.00316 µM
[3] = second compound 0.0316 µM, first compound 0.00999 µM
[4] = second compound 0.0316 µM, first compound 0.0316 µM
[5] = second compound 0.0316 µM, first compound 0.0999 µM
[6] = second compound 0.0316 µM, first compound 0.316 µM
[7] = second compound 0.1 µM, first compound 0.000999 µM
[8] = second compound 0.1 µM, first compound 0.00316 µM
[9] = second compound 0.1 µM, first compound 0.00999 µM
[10] = second compound 0.1 µM, first compound 0.0316 µM
[11] = second compound 0.1 µM, first compound 0.0999 µM
[12] = second compound 0.1 µM, first compound 0.316 µM
[13] = second compound 0.316 µM, first compound 0.000999 µM
[14] = second compound 0.316 µM, first compound 0.00316 µM
[15] = second compound 0.316 µM, first compound 0.00999 µM
[16] = second compound 0.316 µM, first compound 0.0316 µM
[17] = second compound 0.316 µM, first compound 0.0999 µM
[18] = second compound 0.316 µM, first compound 0.316 µM
[19] = second compound 1 µM, first compound 0.000999 µM
[20] = second compound 1 µM, first compound 0.00316 µM
[21] = second compound 1 µM, first compound 0.00999 µM
[22] = second compound 1 µM, first compound 0.0316 µM
[23] = second compound 1 µM, first compound 0.0999 µM
[24] = second compound 1 µM, first compound 0.316 µM
[25] = second compound 3.16 µM, first compound 0.000999 µM
[26] = second compound 3.16 µM, first compound 0.00316 µM
[27] = second compound 3.16 µM, first compound 0.00999 µM
[28] = second compound 3.16 µM, first compound 0.0316 µM
[29] = second compound 3.16 µM, first compound 0.0999 µM
[30] = second compound 3.16 µM, first compound 0.316 µM
[31] = second compound 10 µM, first compound 0.000999 µM
[32] = second compound 10 µM, first compound 0.00316 µM
[33] = second compound 10 µM, first compound 0.00999 µM
[34] = second compound 10 µM, first compound 0.0316 µM
[35] = second compound 10 µM, first compound 0.0999 µM
[36] = second compound 10 µM, first compound 0.316 µM
[37] = second compound 0.0316 µM, first compound 0.1 µM
[38] = second compound 0.0316 µM, first compound 1 µM
[39] = second compound 0.0316 µM, first compound 3.16 µM
[40] = second compound 0.0316 µM, first compound 10 µM
[41] = second compound 0.1 µM, first compound 0.1 µM
[42] = second compound 0.1 µM, first compound 1 µM
[43] = second compound 0.1 µM, first compound 3.16 µM
[44] = second compound 0.1 µM, first compound 10 µM
[45] = second compound 0.316 µM, first compound 0.1 µM
[46] = second compound 0.316 µM, first compound 1 µM
[47] = second compound 0.316 µM, first compound 3.16 µM
[48] = second compound 0.316 µM, first compound 10 µM
[49] = second compound 1 µM, first compound 0.1 µM
[50] = second compound 1 µM, first compound 1 µM
[51] = second compound 1 µM, first compound 3.16 µM
[52] = second compound 1 µM, first compound 10 µM
[53] = second compound 3.16 µM, first compound 0.1 µM
[54] = second compound 3.16 µM, first compound 1 µM
[55] = second compound 3.16 µM, first compound 3.16 µM
[56] = second compound 3.16 µM, first compound 10 µM
[57] = second compound 10 µM, first compound 0.1 µM
[58] = second compound 10 µM, first compound 1 µM
[59] = second compound 10 µM, first compound 3.16 µM
[60] = second compound 10 µM, first compound 10 µM
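Note: spheroids exposed to compounds for seven days.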
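Throughout, for viability, T/C: 100% = DMSO vehicle control viability.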

CC[C@@]1(O)C(=O)OCc2c1cc1n(c2=O)Cc2cc3c(CN(C)C)c(O)ccc3nc2-1 + Cc1cnc(CNC(=O)c2c(=O)c3ccc(N4CCCN(C)CC4)nc3n3c2sc2ccccc23)cn1
inactive: viability, T/C [1] 104% | viability, T/C [2] 95.8% | viability, T/C [3] 84.9% | viability, T/C [4] 49% | viability, T/C [5] 21.9% | viability, T/C [6] 23.7% | viability, T/C [7] 90.8% | viability, T/C [8] 90.2% | viability, T/C [9] 77% | viability, T/C [10] 33.4% | viability, T/C [11] 24.8% | viability, T/C [12] 23.1% | viability, T/C [13] 79.9% | viability, T/C [14] 69.1% | viability, T/C [15] 55.6% | viability, T/C [16] 43.1% | viability, T/C [17] 39.2% | viability, T/C [18] 32.9% | viability, T/C [19] 67.1% | viability, T/C [20] 67.6% | viability, T/C [21] 54.9% | viability, T/C [22] 48.4% | viability, T/C [23] 50% | viability, T/C [24] 47.4% | viability, T/C [25] 61.2% | viability, T/C [26] 63.4% | viability, T/C [27] 60.2% | viability, T/C [28] 49.6% | viability, T/C [29] 61.7% | viability, T/C [30] 42.7% | viability, T/C [31] 19.2% | viability, T/C [32] 17.5% | viability, T/C [33] 57% | viability, T/C [34] 45.9% | viability, T/C [35] 0.31%
24.4 nM: IC50 (second compound 1 µM)
17.5 nM: IC50 (second compound 0.316 µM)
< 0.999 nM: IC50 (second compound 10 µM)
29.5 nM: IC50 (second compound 0.0316 µM)
active: viability, T/C [36] 0.23%
20.4 nM: IC50 (second compound 0.1 µM)
189 nM: IC50 (second compound 3.16 µM)

C=CC(=O)N1CCN(c2nc(=O)n(-c3c(C)ccnc3C(C)C)c3nc(-c4c(O)cccc4F)c(F)cc23)C(C)C1 (stereo not drawn) + Cc1cnc(CNC(=O)c2c(=O)c3ccc(N4CCCN(C)CC4)nc3n3c2sc2ccccc23)cn1
inactive: viability, T/C [4] 100% | viability, T/C [37] 94.2% | viability, T/C [6] 105% | viability, T/C [38] 116% | viability, T/C [39] 118% | viability, T/C [40] 118% | viability, T/C [10] 78.1% | viability, T/C [41] 80.1% | viability, T/C [12] 87.6% | viability, T/C [42] 96.9% | viability, T/C [43] 104% | viability, T/C [44] 97.1% | viability, T/C [16] 79.2% | viability, T/C [45] 79.6% | viability, T/C [18] 71.1% | viability, T/C [46] 78.5% | viability, T/C [47] 85.8% | viability, T/C [48] 76.7% | viability, T/C [22] 73.9% | viability, T/C [49] 72.4% | viability, T/C [24] 75.2% | viability, T/C [50] 81.1% | viability, T/C [51] 90.8% | viability, T/C [52] 73.4% | viability, T/C [28] 59.2% | viability, T/C [53] 64.3% | viability, T/C [30] 78.5% | viability, T/C [54] 74.4% | viability, T/C [55] 86.6% | viability, T/C [56] 76.7% | viability, T/C [34] 0.33% | viability, T/C [57] 19.3% | viability, T/C [36] 58.5% | viability, T/C [58] 70.6% | viability, T/C [59] 0.37%
> 10000 nM: IC50 (second compound 0.0316 µM) | IC50 (second compound 0.1 µM) | IC50 (second compound 0.316 µM) | IC50 (second compound 1 µM) | IC50 (second compound 3.16 µM)
< 31.6 nM: IC50 (second compound 10 µM)
active: viability, T/C [60] 1.42%

Cc1[nH]c2ccccc2c1CCNCc1ccc(/C=C/C(=O)NO)cc1 + Cc1[nH]c2ccc(F)cc2c1-c1nc2c3cccnc3c3ncccc3c2[nH]1
74.3 nM: IC50 (second compound 0.0316 µM)
active: viability, T/C [6] 6.79% | viability, T/C [12] 7.21% | viability, T/C [18] 6.45% | viability, T/C [24] 9.42% | viability, T/C [30] 9.17%
inactive: viability, T/C [1] 107% | viability, T/C [2] 104% | viability, T/C [3] 104% | viability, T/C [4] 85.7% | viability, T/C [5] 37.6% | viability, T/C [7] 104% | viability, T/C [8] 109% | viability, T/C [9] 108% | viability, T/C [10] 94.5% | viability, T/C [11] 36% | viability, T/C [13] 110% | viability, T/C [14] 110% | viability, T/C [15] 90.4% | viability, T/C [16] 88.8% | viability, T/C [17] 38.3% | viability, T/C [19] 106% | viability, T/C [20] 97.5% | viability, T/C [21] 99.1% | viability, T/C [22] 79.8% | viability, T/C [23] 35.3% | viability, T/C [25] 99.7% | viability, T/C [26] 94.3% | viability, T/C [27] 85.3% | viability, T/C [28] 86.6% | viability, T/C [29] 36.2% | viability, T/C [31] 96.2% | viability, T/C [32] 87.9% | viability, T/C [33] 92.3% | viability, T/C [34] 75.5% | viability, T/C [35] 44.6% | viability, T/C [36] 11%
77.5 nM: IC50 (second compound 0.316 µM)
68.4 nM: IC50 (second compound 1 µM)
75.8 nM: IC50 (second compound 0.1 µM)
81.7 nM: IC50 (second compound 10 µM)
72.8 nM: IC50 (second compound 3.16 µM)

Nc1ccn(C2OC(CO)C(O)C2(F)F)c(=O)n1 (stereo not drawn) + CN(C)c1ccc(Nc2c3ccc(NC(=O)CCN4CCCC4)cc3nc3cc(NC(=O)CCN4CCCC4)ccc23)cc1
inactive: viability, T/C [4] 19% | viability, T/C [37] 13.3% | viability, T/C [6] 16.6% | viability, T/C [38] 13.1% | viability, T/C [39] 14.7% | viability, T/C [40] 15.6% | viability, T/C [10] 20.7% | viability, T/C [41] 13.5% | viability, T/C [12] 14.9% | viability, T/C [42] 16.6% | viability, T/C [43] 13.2% | viability, T/C [44] 15.4% | viability, T/C [16] 16.9% | viability, T/C [45] 15.3% | viability, T/C [18] 15.3% | viability, T/C [46] 14.8% | viability, T/C [47] 13.3% | viability, T/C [48] 14.8% | viability, T/C [22] 15.6% | viability, T/C [49] 14.4% | viability, T/C [24] 16.4% | viability, T/C [50] 14% | viability, T/C [51] 14.2% | viability, T/C [52] 15.9% | viability, T/C [28] 18% | viability, T/C [53] 14.7% | viability, T/C [30] 17.4% | viability, T/C [54] 13.3% | viability, T/C [55] 14.6% | viability, T/C [56] 14.7% | viability, T/C [34] 22.8% | viability, T/C [57] 14.2% | viability, T/C [36] 16.9% | viability, T/C [58] 17.6% | viability, T/C [59] 19.7% | viability, T/C [60] 19.8%
< 31.6 nM: IC50 (second compound 0.0316 µM) | IC50 (second compound 0.1 µM) | IC50 (second compound 0.316 µM) | IC50 (second compound 1 µM) | IC50 (second compound 3.16 µM) | IC50 (second compound 10 µM)
